The first assay concerns the target T1, P2Y purinoceptor 14 (Homo sapiens, UniProt Q15391).
T1 sequence (Q15391 whole entry): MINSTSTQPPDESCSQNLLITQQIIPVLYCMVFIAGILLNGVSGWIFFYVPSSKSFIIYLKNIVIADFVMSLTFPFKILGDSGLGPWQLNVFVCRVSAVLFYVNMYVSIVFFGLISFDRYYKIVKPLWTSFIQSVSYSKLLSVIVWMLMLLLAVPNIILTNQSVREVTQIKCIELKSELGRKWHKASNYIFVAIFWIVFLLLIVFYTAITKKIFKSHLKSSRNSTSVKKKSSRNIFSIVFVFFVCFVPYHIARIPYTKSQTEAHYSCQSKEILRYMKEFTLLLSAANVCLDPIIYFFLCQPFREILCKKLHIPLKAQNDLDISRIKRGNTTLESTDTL
The assay is described as follows: Agonist activity at human P2Y14 expressed in COS7 cells assessed as stimulation of PLC-mediated [3H]inositol hydrolysis. Format: functional, cell-based, COS-7.
Settings: not given
The term EC50 denotes the concentration needed to bring the measured effect to its halfway point. As to `O=C(O)[C@H]1O[C@H](OP(=O)(O)OP(=O)(O)OC[C@H]2O[C@@H](n3ccc(=O)[nH]c3=O)[C@H](O)[C@@H]2O)[C@H](O)[C@@H](O)[C@@H]1O`, the EC50 was 370 nM (agonist).

Consider `O=c1ccn([C@@H]2O[C@H](COP(=O)(O)OP(=O)(O)O[C@H]3O[C@H](CO)[C@@H](O)[C@H](O)[C@H]3O)[C@@H](O)[C@H]2O)c(=S)[nH]1`, for which the EC50 is 49 nM (agonist).

As for `O=c1ccn([C@@H]2O[C@H](COP(=O)(O)OP(=O)(O)O[C@H]3[C@H](O)[C@@H](O)[C@H](O)[C@@H](O)[C@@H]3O)[C@@H](O)[C@H]2O)c(=O)[nH]1`, the 50% effective concentration (EC50) is 1880 nM (agonist).

Consider `O=c1ccn([C@@H]2O[C@H](COP(=O)(O)OP(=O)(O)OC[C@@]3(O)O[C@H](CO)[C@@H](O)[C@@H]3O)[C@@H](O)[C@H]2O)c(=O)[nH]1`, for which the EC50 is 880 nM (agonist).

With `O=c1[nH]c(=S)ccn1[C@@H]1O[C@H](COP(=O)(O)OP(=O)(O)O[C@H]2O[C@H](CO)[C@@H](O)[C@H](O)[C@H]2O)[C@@H](O)[C@H]1O`, the concentration giving a half-maximal response (EC50) is 350 nM (agonist).

For the compound `CSc1ccn([C@@H]2O[C@H](COP(=O)(O)OP(=O)(O)O[C@H]3O[C@H](CO)[C@@H](O)[C@H](O)[C@H]3O)[C@@H](O)[C@H]2O)c(=O)n1`, the EC50 is greater than 10000 nM.

With `O=C(O)[C@H]1O[C@H](OP(=O)(O)OP(=O)(O)OC[C@H]2O[C@@H](n3ccc(=O)[nH]c3=S)[C@H](O)[C@@H]2O)[C@H](O)[C@@H](O)[C@@H]1O`, the EC50 is listed as 420 nM (agonist).

The assay is the same for the next values; noted with them: cos-7.
As to `CC(=O)N[C@@H]1[C@H](OP(=O)(O)OP(=O)(O)OC[C@H]2O[C@@H](n3ccc(=O)[nH]c3=O)[C@H](O)[C@@H]2O)O[C@@H](CO)[C@H](O)[C@H]1O` (stereo in doubt), the EC50 is 810 nM (agonist).
